These are literature values, as cited in US8551962B2, “High dosage doramectin formulation” (Zoetis LLC, priority 2009, dated 2013).

For the series the following is noted: beef cattle; single dose of 200 μg/Kg of body weight.

For `CO[C@H]1C[C@H](O[C@H]2[C@H](C)O[C@@H](O[C@@H]3/C(C)=C/C[C@@H]4C[C@@H](C[C@]5(C=C[C@H](C)[C@@H](C6CCCCC6)O5)O4)OC(=O)[C@@H]4C=C(C)[C@@H](O)[C@H]5OC/C(=C\C=C\[C@@H]3C)[C@]54O)C[C@@H]2OC)O[C@@H](C)[C@@H]1O` [doramectin], the withhold time is listed as 35 days.
